In publication PMC3645702, “Protein Tyrosine Nitration and Thiol Oxidation by Peroxynitrite—Strategies to Prevent These Oxidative Modifications” (International Journal of Molecular Sciences, 2013):

Legend:
[1] = molecular target: T1, alcohol dehydrogenase (ADH) (Saccharomyces cerevisiae, UniProt P00330); assay: NADH formation at […] nm; assay type: biochemical
T1 construct: gene ADH1
T1 sequence (P00330 2-348): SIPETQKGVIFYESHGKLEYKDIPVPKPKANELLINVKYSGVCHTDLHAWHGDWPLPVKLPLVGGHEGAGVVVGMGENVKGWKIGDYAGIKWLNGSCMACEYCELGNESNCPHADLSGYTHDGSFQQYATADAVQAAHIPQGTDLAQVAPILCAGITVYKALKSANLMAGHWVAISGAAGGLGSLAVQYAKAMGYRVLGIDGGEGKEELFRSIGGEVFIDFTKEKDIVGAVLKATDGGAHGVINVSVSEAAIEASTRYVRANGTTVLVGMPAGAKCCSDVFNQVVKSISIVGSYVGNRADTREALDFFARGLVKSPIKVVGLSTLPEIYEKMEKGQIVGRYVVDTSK

[2] = molecular target: T2, human prostacyclin synthase (PGIS), microsomal, partially purified (Homo sapiens, UniProt Q16647); assay: 3-nitrotyrosine formation, Western blot and HPLC after pronase; assay type: biochemical
T2 construct: gene PTGIS; overexpressed in Sf21 insect cells
T2 sequence (Q16647 1-500): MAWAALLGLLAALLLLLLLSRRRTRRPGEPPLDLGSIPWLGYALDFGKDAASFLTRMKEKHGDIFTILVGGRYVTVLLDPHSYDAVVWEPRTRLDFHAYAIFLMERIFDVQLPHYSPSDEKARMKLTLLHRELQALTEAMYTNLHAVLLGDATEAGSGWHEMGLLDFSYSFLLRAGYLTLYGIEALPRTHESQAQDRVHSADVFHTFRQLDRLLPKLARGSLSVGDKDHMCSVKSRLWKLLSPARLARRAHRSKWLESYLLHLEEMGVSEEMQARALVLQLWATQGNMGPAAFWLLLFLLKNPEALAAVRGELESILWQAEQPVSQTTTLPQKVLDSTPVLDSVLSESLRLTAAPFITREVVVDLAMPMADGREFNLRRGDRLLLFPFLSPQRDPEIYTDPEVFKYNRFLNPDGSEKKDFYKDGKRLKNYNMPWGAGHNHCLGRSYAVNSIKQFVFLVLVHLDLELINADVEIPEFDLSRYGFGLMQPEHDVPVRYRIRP
From the text: 3-nitrotyrosine formation, Western blot and HPLC after pronase on human prostacyclin synthase (PGIS), microsomal, partially purified | peroxynitrite-dependent nitration of an over-expressed and partially purified human prostacyclin synthase

inhibition at 50 µM [1] | EC50 [2] | Compound
20% | – | S=c1[nH]c(=S)c2[nH]cnc2[nH]1 [2,6-Dithiopurine]
– | 5 µM | O=NOO [peroxynitrite]
20% | – | S=c1cc[nH]c(=S)[nH]1 [2,6-Dithiopyrimidine]
